The values that follow come from US9179674B2, “Macrocyclic picolinamide compounds with fungicidal activity” (DOW AGROSCIENCES LLC, priority 2013, dated 2015).

Assay type in all cases: in vivo
Assay [1] has as its system Magnaporthe grisea; Anamorph: Pyricularia oryzae. Briefly: whole plant or invertebrate. Conditions: 24 h, read-out: Disease Control PYRIOR 1DP.
For assay [2], the system named is Rhyncosporium secalis. Briefly: Barley Scald fungicidal activity (RHYNSE). The following applies: Hordeum vulgare, 24 h, 1 Day Protectant, read-out: Disease Control RHYNSE 1DP. How it is done: Technical grades of materials were dissolved in acetone, which were then mixed with nine volumes of water containing 110 ppm Triton X-100. The fungicide solutions were applied onto wheat seedlings using an automated booth sprayer to run-off. All sprayed plants were allowed to air dry prior to further handling. All fungicides were evaluated using the aforementioned method for their activity vs. all target diseases. Wheat leaf blotch and brown rust activity were also evaluated using track spray applications, in which case the fungicides were formulated as EC formulations, containing 0.1% Trycol 5941 in the spray solutions. Wheat plants (variety Yuma) were grown from seed in a greenhouse in 50% mineral soil/50% soil-less Metro mix until the first leaf was fully emerged, with 7-10 seedlings per pot. These plants were inoculated with an aqueous spore suspension of Septoria tritici either prior to or after fungicide treatments. After inoculation the plants were kept in 100% relative humidity (one day in a dark dew chamber followed by two to three days in a lighted dew chamber at 20° C.) to permit spores to germinate and infect the leaf. The plants were then transferred to a greenhouse set at 20° C. for disease to develop. When disease symptoms were fully expressed on the 1st leaves of untreated plants, infection levels were assessed on a scale of 0 to 100 percent disease severity. Percent disease control was calculated using the ratio of disease severity on treated plants relative to untreated plants. Evaluation of Fungicidal Activity: Barley Scald (Rhyncosporium secalis; Bayer Code […]) Barley seedlings (variety Harrington) were propagated in soil-less Metro mix, with each pot having 8 to 12 plants, and used in the test when first leaf was fully emerged. Test plants were inoculated by an aqueous spore suspension of Rhyncosporium secalis 24 hr after fungicide treatments. After inoculation the plants were kept in a dew room at 20° C. with 100% relative humidity for 48 hr. The plants were then transferred to a greenhouse set at 20° C. for disease to develop. Fungicide formulation, application and disease assessment on the sprayed leaves followed the procedures as described in the Example A.

In assay [3] the test system is Venturia inaequalis. Briefly: Apple Scab fungicidal activity (VENTIN). Conditions: 100 ppm, 1 Day Protectant. How it is done:
Technical grades of materials were dissolved in acetone, which were then mixed with nine volumes of water containing 110 ppm Triton X-100. The fungicide solutions were applied onto wheat seedlings using an automated booth sprayer to run-off. All sprayed plants were allowed to air dry prior to further handling. All fungicides were evaluated using the aforementioned method for their activity vs. all target diseases. Wheat leaf blotch and brown rust activity were also evaluated using track spray applications, in which case the fungicides were formulated as EC formulations, containing 0.1% Trycol 5941 in the spray solutions. Wheat plants (variety Yuma) were grown from seed in a greenhouse in 50% mineral soil/50% soil-less Metro mix until the first leaf was fully emerged, with 7-10 seedlings per pot. These plants were inoculated with an aqueous spore suspension of Septoria tritici either prior to or after fungicide treatments. After inoculation the plants were kept in 100% relative humidity (one day in a dark dew chamber followed by two to three days in a lighted dew chamber at 20° C.) to permit spores to germinate and infect the leaf. The plants were then transferred to a greenhouse set at 20° C. for disease to develop. When disease symptoms were fully expressed on the 1st leaves of untreated plants, infection levels were assessed on a scale of 0 to 100 percent disease severity. Percent disease control was calculated using the ratio of disease severity on treated plants relative to untreated plants. Evaluation of Fungicidal Activity: Apple Scab (Venturia inaequalis; Bayer code […]) Apple seedlings (variety McIntosh) were grown in soil-less Metro mix, with one plant per pot. Seedlings with two expanding young leaves at the top (older leaves at bottom of the plants were trimmed) were used in the test. Plants were inoculated with a spore suspension of Venturia inaequalis 24 hr after fungicide treatment and kept in a 22° C. dew chamber with 100% RH for 48 hr, and then moved to a greenhouse set at 20° C. for disease to develop. Fungicide formulation, application and disease assessment on the sprayed leaves followed the procedures as described in the Example A.

Assay [4] deals with Leptosphaeria nodorum. Briefly: Wheat Glume Blotch fungicidal activity (LEPTNO). The following applies: 100 ppm, 1 Day Protectant. How it is done:
Technical grades of materials were dissolved in acetone, which were then mixed with nine volumes of water containing 110 ppm Triton X-100. The fungicide solutions were applied onto wheat seedlings using an automated booth sprayer to run-off. All sprayed plants were allowed to air dry prior to further handling. All fungicides were evaluated using the aforementioned method for their activity vs. all target diseases. Wheat leaf blotch and brown rust activity were also evaluated using track spray applications, in which case the fungicides were formulated as EC formulations, containing 0.1% Trycol 5941 in the spray solutions. Wheat plants (variety Yuma) were grown from seed in a greenhouse in 50% mineral soil/50% soil-less Metro mix until the first leaf was fully emerged, with 7-10 seedlings per pot. These plants were inoculated with an aqueous spore suspension of Septoria tritici either prior to or after fungicide treatments. After inoculation the plants were kept in 100% relative humidity (one day in a dark dew chamber followed by two to three days in a lighted dew chamber at 20° C.) to permit spores to germinate and infect the leaf. The plants were then transferred to a greenhouse set at 20° C. for disease to develop. When disease symptoms were fully expressed on the 1st leaves of untreated plants, infection levels were assessed on a scale of 0 to 100 percent disease severity. Percent disease control was calculated using the ratio of disease severity on treated plants relative to untreated plants. Evaluation of Fungicidal Activity: Wheat Glume Blotch (Leptosphaeria nodorum; Bayer code […]) Wheat plants (variety Yuma) were grown from seed in a greenhouse in 50% mineral soil/50% soil-less Metro mix until the first leaf was fully emerged, with 7-10 seedlings per pot. These plants were inoculated with an aqueous spore suspension of Leptosphaeria nodorum 24 hr after fungicide treatments. After inoculation the plants were kept in 100% relative humidity (one day in a dark dew chamber followed by two days in a lighted dew chamber at 20° C.) to permit spores to germinate and infect the leaf. The plants were then transferred to a greenhouse set at 20° C. for disease to develop. Fungicide formulation, application and disease assessment followed the procedures as described in the Example A.

In the case of `COc1ccnc(C(=O)N[C@H]2COC[C@H](CC(F)(F)F)[C@@H](OC3CCCC3)[C@H](C)OC2=O)c1OCOC(C)=O` [Compound F105], the pest or weed control at 100 ppm in assay [1] and in assay [2] was 80 to 100% throughout.

On to `COc1ccnc(C(=O)N[C@H]2COC[C@H](CCc3ccccc3)[C@@H](OCC(C)C)[C@H](C)OC2=O)c1OCOC(C)=O` [Compound F82], for which the pest or weed control at 100 ppm in assay [1] and in assay [2] was 80 to 100% each time.

In the case of `COc1ccnc(C(=O)N[C@H]2COC[C@H](Cc3ccc(C)cc3)[C@@H](OCC(C)C)[C@H](C)OC2=O)c1OCOC(C)=O` [Compound F117], the “Disease Control VENTIN 1DP” value in assay [3] was “A (80-100)”. Further, the pest or weed control at 100 ppm in assay [1] lay within 80 to 100%. Besides, in assay [4], the “Disease Control LEPTNO 1DP” value is on record as “A (80-100)”.

As to `COc1ccnc(C(=O)N[C@H]2COC[C@H](Cc3ccc(Cl)cc3Cl)[C@@H](OC(=O)C(C)C)[C@H](C)OC2=O)c1OC(C)=O` [Compound F73], the pest or weed control at 100 ppm in assay [1] and in assay [2] was 80 to 100% throughout.

On to `COc1ccnc(C(=O)N[C@H]2COC[C@H](CC3CCCC3)[C@@H](OC(=O)C(C)C)[C@H](C)OC2=O)c1OCOC(C)=O` [Compound F114], for which the “Disease Control VENTIN 1DP” value in assay [3] is on record as “A (80-100)”. Moreover, the pest or weed control at 100 ppm in assay [1] and in assay [2] was 80 to 100% each time.

In the case of `COc1ccnc(C(=O)N[C@H]2COC[C@H](Cc3ccc(C)cc3)[C@@H](OCC(C)C)[C@H](C)OC2=O)c1OC(C)=O` [Compound F80], the “Disease Control VENTIN 1DP” value in assay [3] is recorded as “B (More than 0-Less than 80)”. Also, in assay [1], the pest or weed control at 100 ppm was 80 to 100%. Further, the “Disease Control LEPTNO 1DP” value in assay [4] is “A (80-100)”.

With `COc1ccnc(C(=O)N[C@H]2COC[C@H](Cc3ccc(Cl)cc3Cl)[C@@H](OC(=O)C(C)C)[C@H](C)OC2=O)c1OCOC(C)=O` [Compound F110], the pest or weed control at 100 ppm in assay [1] and in assay [2] was 80 to 100% in each case.

Take `COc1ccnc(C(=O)N[C@H]2COC[C@H](Cc3ccc(F)cc3)[C@@H](OCC(C)C)[C@H](C)OC2=O)c1OCOC(C)=O` [Compound F96]: in assay [1], the pest or weed control at 100 ppm is 80 to 100%. The “Disease Control LEPTNO 1DP” value in assay [4] is recorded as “A (80-100)”.

`COc1ccnc(C(=O)N[C@H]2COC[C@H](CCC(C)C)[C@@H](OCCCC(F)(F)F)[C@H](C)OC2=O)c1OCOC(C)=O` [Compound F107]: the pest or weed control at 100 ppm in assay [1] and in assay [2] was 80 to 100% throughout.

For `CCCCCO[C@@H]1[C@@H](Cc2ccc(Cl)cc2Cl)COC[C@H](NC(=O)c2nccc(OC)c2OCOC(=O)COCC)C(=O)O[C@H]1C` [Compound F122], the “Disease Control VENTIN 1DP” value in assay [3] was “A (80-100)”. Besides, the pest or weed control at 100 ppm in assay [2] lay in the range of 80 to 100%. Further, in assay [4], the “Disease Control LEPTNO 1DP” value is “A (80-100)”.

`CCCCCO[C@@H]1[C@@H](Cc2ccc(Cl)cc2Cl)COC[C@H](NC(=O)c2nccc(OC)c2OC(=O)CCOC)C(=O)O[C@H]1C` [Compound F123]: the “Disease Control VENTIN 1DP” value in assay [3] was “B (More than 0-Less than 80)”. Also, the pest or weed control at 100 ppm in assay [2] was in the range of 80 to 100%. Besides, the “Disease Control LEPTNO 1DP” value in assay [4] is on record as “A (80-100)”.

As for `COc1ccnc(C(=O)N[C@H]2COC[C@H](CCC(C)C)[C@@H](OC(=O)C3CC3)[C@H](C)OC2=O)c1OCOC(C)=O` [Compound F108], the pest or weed control at 100 ppm in assay [1] and in assay [2] was 80 to 100% throughout.

With `COc1ccnc(C(=O)N[C@H]2COC[C@H](Cc3cccc4ccccc34)[C@@H](OC(=O)C(C)C)[C@H](C)OC2=O)c1OCOC(C)=O` [Compound F83, (3S,6S,7R,8S)-3-(3-(acetoxymethoxy)-4-methoxypicolin-amido)-6-methyl-8-(naphthalen-1-ylmethyl)-4-oxo-1,5-dioxonan-7-yl isobutyrate], the “Disease Control VENTIN 1DP” value in assay [3] was “A (80-100)”. Moreover, the pest or weed control at 100 ppm in assay [1] and in assay [2] was 80 to 100% each time. Further, in assay [4], the “Disease Control LEPTNO 1DP” value is reported as “A (80-100)”.
